# Measurements reported in the NIST ThermoML archive (doi:10.1016/j.jct.2012.12.018).
# ± gives the expanded uncertainty stated by the source.
# Assay: xn = mol fraction of the nth substance listed
# Conditions: Gas, Buoyancy - hydrostatic balance with magnetic suspension - one sinker, x2 = 0.8977
smiles,measurement,setting,value
N#N [nitrogen] + C,mass density,"170.59 K, 761.2 kPa",10.0103 ± 0.2 kg/m3
same,mass density,"170.59 K, 1037.8 kPa",14.0966 ± 0.28 kg/m3
same,mass density,"170.59 K, 1287.8 kPa",18.0625 ± 0.36 kg/m3
same,mass density,"170.6 K, 455.1 kPa",5.7907 ± 0.12 kg/m3
same,mass density,"187.47 K, 422.8 kPa",4.8286 ± 0.097 kg/m3
same,mass density,"187.47 K, 722.4 kPa",8.4419 ± 0.17 kg/m3
same,mass density,"187.47 K, 1064.8 kPa",12.7954 ± 0.26 kg/m3
same,mass density,"187.47 K, 1349.6 kPa",16.6251 ± 0.33 kg/m3
same,mass density,"217.54 K, 441.1 kPa",4.2954 ± 0.086 kg/m3
same,mass density,"217.54 K, 1298.9 kPa",13.1778 ± 0.26 kg/m3
same,mass density,"217.54 K, 1475.3 kPa",15.0994 ± 0.3 kg/m3
same,mass density,"217.55 K, 724.1 kPa",7.1436 ± 0.14 kg/m3
same,mass density,"217.55 K, 1017.9 kPa",10.1853 ± 0.2 kg/m3
same,mass density,"240.48 K, 975.3 kPa",8.695 ± 0.17 kg/m3
same,mass density,"240.48 K, 1256.7 kPa",11.3113 ± 0.23 kg/m3
same,mass density,"240.48 K, 1594.5 kPa",14.5212 ± 0.29 kg/m3
same,mass density,"240.49 K, 438.2 kPa",3.8367 ± 0.077 kg/m3
same,mass density,"240.49 K, 715.8 kPa",6.3263 ± 0.13 kg/m3
same,mass density,"261 K, 145.7 kPa",1.1633 ± 0.024 kg/m3
same,mass density,"261 K, 436.6 kPa",3.5148 ± 0.07 kg/m3
same,mass density,"261 K, 729 kPa",5.9093 ± 0.12 kg/m3
same,mass density,"261 K, 1021.7 kPa",8.3427 ± 0.17 kg/m3
same,mass density,"270.05 K, 133.3 kPa",1.0285 ± 0.021 kg/m3
same,mass density,"270.05 K, 424.6 kPa",3.2976 ± 0.066 kg/m3
same,mass density,"270.05 K, 731.4 kPa",5.7195 ± 0.11 kg/m3
same,mass density,"270.05 K, 1025.7 kPa",8.0721 ± 0.16 kg/m3
same,mass density,"270.05 K, 1195.4 kPa",9.445 ± 0.19 kg/m3
